Data set [1] in a line: Cytotoxicity assay (cell viability, crystal violet staining). To be noted: cattle (Bos taurus), MDBK cells, 3 days at 37°C, mean and SD of at least two independent experiments. The format is cell-based, Bos taurus. The protocol: (§1) MDBK cells (Bos taurus kidney, ATCC CCL-22) were purchased from ATCC and grown in Dulbecso's modified Eagle medium (DMEM) supplemented with 10% fetal bovine serum and antibiotics under 5% CO2 at 37°C. For infections, cells were cultivated in DMEM supplemented with 2% Horse serum and antibiotics under 5% CO2 at 37°C.
(§2) Cell viability assays were performed on confluent cell cultures in 96 well plates (~15,000 cells per well). For each compound, cells were treated with serial dilutions of the compound in quadruplicates and incubated at 37°C for 3 days. Then, cell viability was measured using crystal violet staining. Briefly, cells were fixed with 10% formaldehyde, stained with crystal violet solution (20% Ethanol, 0.1% Crystal Violet), and after washing, the absorbance at 595 nm was recorded for each well in a spectrophotometer. Assays were conducted at least in duplicates, and the cytotoxic concentration 50 (CC50) was estimated by a nonlinear regression fitting of five data points as the compound concentration necessary to reduce cell viability by 50% compared to control non-treated cells.

Data set [2] concerns BVDV. The data set is described as follows: Reporter-based assay for antiviral activity (cpBVDV/Npro GFP, flow cytometry). The format is cell-based, Bovine viral diarrhea virus. To be noted: read-out: IC50 BVDV. The protocol: Antiviral activity was evaluated in a reporter-based assay using a recombinant virus expressing GFP, cpBVDV/Npro GFP (Pascual et al., [2018]). MDBK cells were seeded onto 24 well plates, infected with cpBVDV/Npro GFP at a multiplicity of infection of 0.1 in the presence of increasing concentrations of compounds. At 48 h post-infection cells were thoroughly washed, lifted with trypsin 0.05% and fixed using 4% paraformaldehyde in PBS. The fluorescence signal was measured using a flow cytometer (CyFlow® Space, Partec) at a detection spectrum of 488 nm. Data were analyzed in the FlowJo 7.6.2 software package. The inhibitory concentrations 50 (IC50s) for the compounds tested in the assay were calculated from curves constructed by plotting the percentage of infected cells versus the concentration of compound as the compound concentration necessary to reduce the number of infected cells by 50% compared to control non-treated cells.
First, we assayed selected compounds for cytotoxicity in cultured cells. […] The remainder of the compounds were evaluated for antiviral activity in a reporter-based assay using a recombinant BVDV virus carrying GFP on its genome to infect MDBK cells (Pascual et al., [2018]). Expression of GFP induced by BVDV infection was measured 2 days after infection using flow cytometry. Inhibition of BVDV infection was assessed by comparing the number of GFP positive cells in non-treated control cells and in cells treated with increasing amounts of compound.
(In general: A flow cytometer gives signals particle by particle.)

For data set [3], the system named is MDBK cells. The experiment in a line: Cytotoxicity assay (cell viability, crystal violet staining). Type of data set: cell-based, Bos taurus. On the procedure: as §1, §2
For data set [4], the system named is MDBK cells. On the set-up: method as in Pascual et al. (2018). Conditions: ref Pascual et al. (2018), cited from earlier work.
Another data set relates to BVDV cell entry. The arrangement: method as in Pascual et al., 2018. To be noted: previously shown; ref Pascual et al., 2018; cited from earlier work.
Data set [5] concerns BVDV. On the set-up: method as in Pascual et al. (2018). Conditions: MDBK cells infected with cpBVDV/Npro GFP; ref Pascual et al. (2018); cited from earlier work.
Where [6] appears, read: MDBK cells (bovine kidney, ATCC CCL-22).
Setting [7] is: Bovine viral diarrhea virus isolates and strains, MDBK, 48 h.

Like-named read-outs stand apart in the source and are kept apart here.

The term CC50 denotes the concentration giving 50% cytotoxicity. One may read the IC50 as the point on the concentration scale where inhibition reaches its midpoint.

For the compound `COc1ccccc1NC(=O)Cc1nnc(SCC(=O)Nc2cc(Cl)ccc2C)n1C` [Compound 10], the CC50 at 3 days in data set [1] (setting [6]) is > 50 µM.

`CCOC(=O)c1ccc2nc(NC(=O)c3cccc(Cl)c3)sc2c1` [Compound 8]: the IC50 with BVDV [2] (setting [7]) was 20.2 ± 3.6 µM. Further, the CC50 at 3 days in data set [1] (setting [6]) was > 50 µM. For the same compound, the “cytotoxicity at 50 μM” value with MDBK cells [3] (MDBK cells, 50 μM) is “no cytotoxicity was detected”. In data set [1] (setting [6]), `O=C(NNC(=O)c1cc2cc(OC(F)(F)F)ccc2[nH]1)c1cccc(C(F)(F)F)c1` [Compound 6] showed a CC50 at 3 days of 7.2 ± 1.3 µM. For the same compound, the “cytotoxicity in cultured cells” value with MDBK cells [3] (MDBK cells, compound discarded from further analysis) is listed as “high toxicity”. In data set [1] (setting [6]), `O=C(OCCO)c1cccc2c1-c1ccccc1C2=O` [Compound 13] registered a CC50 at 3 days of 61.5 ± 1.4 µM. On to `c1ccc(CN2CCN(c3cccc4[nH]cnc34)CC2)cc1` [Compound 1], for which the CC50 at 3 days in data set [1] (setting [6]) is > 50 µM. Same read-out and setting: the figure for `Cc1cc(NC(=O)CCC(=O)O)no1` [Compound 14, 4-((5-methylisoxazol-3-yl)amino)-4-oxobutanoic acid] is > 50 µM. For `COc1ccc(C(=O)Nc2cc(-c3ccccc3)sc2C(N)=O)cc1OC` [PTC12], in the data set with MDBK cells [4], the “cytotoxicity at 50 μM” value is given as “no cytotoxicity was detected” and the CC50 was 89.5 ± 1.1 µM. In addition, the “block of BVDV cell entry” value with BVDV cell entry is recorded as “specifically block BVDV cell entry”. The IC50 in the data set with BVDV [5] is 0.3 ± 0.1 µM. Turning to `C1=C(c2nc3ccccc3o2)CCN1Cc1ncc[nH]1` [Compound 2], in the data set with BVDV [2] (setting [7]), the IC50 amounted to 44.3 ± 10.3 µM. For the same compound, the CC50 at 3 days in data set [1] (setting [6]) was > 50 µM. On to `N=C(N)Nc1nc2ccccc2[nH]1` [Compound 12, 2-Guanidinobenzimidazole], for which the IC50 with BVDV [2] (setting [7]) turned out to be 44.4 ± 11.5 µM. In addition, in data set [1] (setting [6]), the CC50 at 3 days was > 50 µM.

Take “(E)-2-(4-(dimethylamino)benzylidene)-N-(4-(trifluoromethyl)phenyl)hydrazinecarbothioamide [Compound 11]”: in the data set with BVDV [2] (MDBK cells infected with cpBVDV/Npro GFP, MOI 0.1, 48 h post-infection, mean and SD of at least two independent experiments, NA = assayed but not active), the IC50 amounted to 23.9 ± 7.9 µM. Moreover, in the data set on MDBK cells [3], the CC50 was > 50 µM and the “cytotoxicity at 50 μM” value is reported as “no cytotoxicity was detected”. Regarding `OCCCc1nc2ccccc2[nH]1` [BI03], in the data set with MDBK cells [4], the “cytotoxicity at 50 μM” value is “no cytotoxicity was detected” and the cytotoxic concentration (CC50) is > 200 µM. Moreover, in the data set on BVDV cell entry, the “block of BVDV cell entry” value is given as “specifically block BVDV cell entry”. In addition, the IC50 with BVDV [5] is 17.6 ± 6.4 µM.

Consider `O=C(NCc1ccc2c(c1)OCO2)Oc1ccccc1` [Compound 7], for which the CC50 at 3 days in data set [1] was > 50 µM.

For `Cc1ccc(CNC(=N)NC(=N)N)cc1` [Compound 17], the CC50 at 3 days in data set [1] (setting [6]) was > 50 µM.

In the case of `NNC(=O)c1ccccc1NC(=O)c1ccccc1` [Compound 3], the half-maximal cytotoxic concentration (CC50) at 3 days in data set [1] is > 50 µM. In the case of `O=C(Nc1ccc(OC(F)(F)F)cc1)c1ccco1` [Compound 16, N-(4-(trifluoromethoxy)phenyl)furan-2-carboxamide], the CC50 at 3 days in data set [1] (setting [6]) worked out at 49.8 ± 1.5 µM. In the case of `C[C@@H](Sc1nnc(-c2cccnc2)n1N)C(=O)Nc1cccc(C(F)(F)F)c1` [Compound 4], the concentration for half-maximal inhibition (IC50) in the data set on BVDV [2] (setting [7]) was determined as 30.1 ± 2.9 µM. Further, the CC50 at 3 days in data set [1] (setting [6]) is > 50 µM. Moreover, the “cytotoxicity at 50 μM” value in the data set on MDBK cells [3] (MDBK cells, 50 μM) was “no cytotoxicity was detected”. In the case of `Cc1cccc(Cl)c1NC(=N)NC(=N)N` [Compound 5], in data set [1] (setting [6]), the CC50 at 3 days was > 50 µM.

Turning to `CS/C(=N\S(=O)(=O)c1ccc(-n2nc(C(F)(F)F)cc2-c2cccs2)cc1)N1CCCC1` [Compound 9], the 50% cytotoxic concentration (CC50) at 3 days in data set [1] (setting [6]) is > 50 µM. For “4-chloro-N-(isoxazol-5-yl)benzamide [Compound 15]”, the CC50 in the data set with MDBK cells [3] was > 50 µM.

The values above are taken from paper PMC5879447, “Discovery of Novel Bovine Viral Diarrhea Inhibitors Using Structure-Based Virtual Screening on the Envelope Protein E2” (Frontiers in Chemistry, 2018).
